Assay results taken from article PMC11335189, “Revealing molecular determinants governing mambalgin-3 pharmacology at acid-sensing ion channel 1 variants” (Cellular and Molecular Life Sciences: CMLS, 2024).
Positions of bridges follow the written chain, without caps; N, C: chain ends. No end group written: not given here.

Legend:
[1] = biological target: T1, rASIC1a (Rattus norvegicus, UniProt P55926); experiment: TEVC in Xenopus laevis oocytes expressing rASIC1a; format: cell-based; settings: for inhibition of currents at 300 nM: 300 nM peptide; for increase in IC50 (loss of potency) relative to wild-type Ma-3: peptides applied at pH 7.45, stimulated at pH 6
T1 construct: expressed in transfected cells; host or cells: Xenopus laevis oocytes (cRNA injection)
T1 sequence (P55926 1-526): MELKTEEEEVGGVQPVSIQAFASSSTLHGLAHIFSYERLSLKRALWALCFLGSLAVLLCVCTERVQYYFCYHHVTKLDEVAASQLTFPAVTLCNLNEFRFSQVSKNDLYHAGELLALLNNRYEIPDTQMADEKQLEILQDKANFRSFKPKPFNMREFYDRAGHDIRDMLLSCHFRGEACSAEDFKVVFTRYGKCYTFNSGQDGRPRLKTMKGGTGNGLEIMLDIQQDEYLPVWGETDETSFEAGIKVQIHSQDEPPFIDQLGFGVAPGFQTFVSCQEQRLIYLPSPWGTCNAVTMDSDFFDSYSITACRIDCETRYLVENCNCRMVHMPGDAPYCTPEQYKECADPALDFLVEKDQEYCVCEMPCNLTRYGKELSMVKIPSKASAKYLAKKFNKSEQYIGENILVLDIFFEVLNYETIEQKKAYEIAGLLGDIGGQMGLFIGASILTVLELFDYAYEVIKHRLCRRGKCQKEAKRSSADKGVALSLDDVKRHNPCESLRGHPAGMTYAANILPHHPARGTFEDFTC
Experimental: (§1) Two-electrode voltage-clamp (TEVC) experiments using Xenopus laevis oocytes were conducted as previously described. Briefly, oocytes were surgically removed from anaesthetised female frogs, then treated with collagenase (~ 1 mg/ml, Sigma type I) for 2 h under agitation at room temperature. cRNAs were synthesised using a mMessage mMachine T7 or SP6 transcription kit (Thermo Fisher Scientific Australia Pty Ltd, Scoresby, VIC, Australia) and injected into healthy stage V–VI oocytes at 0.2–20 ng per cell. Different amounts of RNA were used for different wild-type and mutant constructs, as well as to titrate expression levels to record over multiple days and maintaining consistent expression levels. Injected oocytes were incubated at 17 °C for 1–7 days in 50% Leibovitz’s L-15 medium (Gibco, Thermo Fisher Scientific Australia Pty Ltd, Scoresby, VIC, Australia), supplemented with 25 µg/mL gentamicin, 25 µg/mL streptomycin, and 2.5% fetal horse serum. Membrane currents were recorded 2–7 days after cRNA-injection under voltage-clamp at -60 mV (Axon Axoclamp 900 A, Molecular Devices, CA, USA) using two standard glass microelectrodes of 0.5–1 MΩ resistance when filled with 3 M KCl solution. Data were sampled at 2 kHz and filtered at 0.1 kHz using Clampex 10 software (Molecular Devices, CA, USA). A microperfusion system was used to allow fast extracellular solution exchange (bath volume = ~ 30 µL). All experiments were performed at room temperature (18–23 °C) in ND96 (96 mM NaCl, 2 mM KCl, 1.8 mM CaCl2, 2 mM MgCl2, 5 mM HEPES, pH 7.45). In solutions below pH 6.8, HEPES was replaced by MES. All solutions containing peptides contained 0.05% fatty acid free bovine serum albumin to decrease adsorptive losses of peptide to plasticware. For all channels tested, control current magnitudes between 500 and 9000 nA when tested using a conditioning pH of 7.45 and stimulating pH of 6 (except for the chimeras that were stimulated with pH 5) were used for data collection. Before recording any experiments, oocytes were stimulated multiple times with low pH to minimise and stabilise tachyphylaxis/desensitisation, which were then accounted for during analysis. Complete recovery of currents from Ma-3 induced modulation within 3 min of washout at all channels tested allowed for correction for tachyphylaxis/desensitisation during analyses.
(§2) Specific to this work, the standard protocol was for oocytes to be conditioned at pH 7.45 and channels stimulated every 60 s using a 5 s pH 5 or 6 application, unless stated otherwise. For all concentration-response data, peptides were applied for ~ 50 s between each low pH stimulus application. Activation curves were determined by conditioning oocytes at pH 8 (Fig. 2e − g; and Fig. 5a and b) or 7.45 (Fig. 6; and Supplementary Fig. 2d and c) for 55 s and applying low pH stimuli from 7.25 to 5.0 for 5 s. Steady-state desensitisation (SSD) was determined by applying conditioning solutions of pH values from 8 to 6 for 115 s prior to stimulation by a pH drop to 5 for 5 s. Ma-3 was only applied in the conditioning solution for activation and steady-state desensitisation curves in the presence of peptide. Control pH-dependence curves were determined in the absence of any Ma-3. When assessing the effect of Ma-3 on the rASIC1a: ASIC1b chimeras (C92 and C166; and for the comparative wild-type data), the conditioning pH was 7.45 and stimulating pH 5 (Fig. 3b). Specific details of the conditioning and stimulating pH are noted in each figure legend.
(§3) Data were analysed using pCLAMP-Clampfit software (Version 11, Molecular Devices, CA, USA) and GraphPad Prism 9.5 and 10.2.2 (GraphPad Software, San Diego, CA, USA). To obtain the Hill coefficient (nH) and half-maximal response (EC50, IC50, or pH50) the Hill equation was fitted to normalised concentration-response curves by using a non-linear fit to the data of a four-parameter logistic equation (“sigmoidal dose-response” in GraphPad Prism 9.5). […]

[2] = biological target: T2, rASIC1b (Rattus norvegicus, UniProt P55926); experiment: TEVC in Xenopus laevis oocytes expressing rASIC1b; format: cell-based; settings: for remaining activity at 0.3 µM: 300 nM peptide, conditioning pH 7.45, stimulating pH 6, read-out: I/Icontrol; for loss in potency relative to wild-type Ma-3 (estimated): peptides applied at pH 7.45, stimulated at pH 6
T2 construct: expressed in transfected cells; host or cells: Xenopus laevis oocytes (cRNA injection)
T2 sequence (P55926 1-559 isoform P55926-3): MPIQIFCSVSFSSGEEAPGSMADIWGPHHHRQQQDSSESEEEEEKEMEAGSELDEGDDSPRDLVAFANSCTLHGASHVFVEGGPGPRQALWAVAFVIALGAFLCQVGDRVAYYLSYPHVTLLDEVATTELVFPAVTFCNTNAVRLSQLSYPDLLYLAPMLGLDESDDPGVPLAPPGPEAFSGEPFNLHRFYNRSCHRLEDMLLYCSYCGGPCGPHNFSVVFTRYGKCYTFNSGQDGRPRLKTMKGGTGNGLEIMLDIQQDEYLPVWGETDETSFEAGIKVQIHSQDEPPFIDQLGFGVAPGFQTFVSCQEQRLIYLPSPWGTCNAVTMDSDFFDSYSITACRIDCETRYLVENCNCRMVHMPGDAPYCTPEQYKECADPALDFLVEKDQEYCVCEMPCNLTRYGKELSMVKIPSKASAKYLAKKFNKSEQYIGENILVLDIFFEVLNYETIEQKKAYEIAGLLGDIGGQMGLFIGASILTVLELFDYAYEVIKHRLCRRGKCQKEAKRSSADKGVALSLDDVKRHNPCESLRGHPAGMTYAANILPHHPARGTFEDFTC
Experimental: as §1, §2, §3

[3] = conditioning pH 7.45, stimulating pH 6
[4] = 100 nM Ma-3, conditioning pH 8, mean ± SEM
[5] = 100 nM Ma-3, stimulating pH 5, mean ± SEM
[6] = 100 nM Ma-3 in conditioning solution, conditioning pH 8, Hill fit, mean ± SEM, n = 5–8
[7] = 100 nM Ma-3 in conditioning solution, stimulating pH 5, Hill fit, mean ± SEM, n = 5–8

Q: With “H-SLKCYQHGAVVTCHRDMKFCYHNIGMPFRNLKLILQGCSSSCSETENNKCCSTDRCNK (disulfide 4-20, 13-38, 42-50, 51-56 (inferred)) [K8A]” as the substance, how does the “inhibition of currents at 300 nM” value [1, 3] read?
A: strongly inhibit

Q: And the “increase in IC50 (loss of potency) relative to wild-type Ma-3” value [1]?
A: ~ 4 fold

Q: And the remaining activity at 0.3 µM ([2]; n = 5–8)?
A: 91%

Q: What about the “loss in potency relative to wild-type Ma-3 (estimated)” value [2] of the same substance?
A: > 30 fold

Q: How did the “inhibition of currents at 300 nM” value [1, 3] turn out when “H-SLKCYQHGKVVTCHRDAKFCYHNIGMPFRNLKLILQGCSSSCSETENNKCCSTDRCNK (disulfide 4-20, 13-38, 42-50, 51-56 (inferred)) [M16A]” was run?
A: strongly inhibit

Q: And the “increase in IC50 (loss of potency) relative to wild-type Ma-3” value [1]?
A: no change

Q: What about the remaining activity at 0.3 µM ([2]; n = 5–8) of the same substance?
A: 80%

Q: What about the “loss in potency relative to wild-type Ma-3 (estimated)” value [2] of the same substance?
A: > 30 fold

Q: How did the “t1/2 of onset of inhibition” value ([1]; 30 nM Ma-3 (~ 10 times the IC50) applied at pH 7.45 for different durations, single exponential fit, n = 6) turn out when “H-SLKCYQHGKVVTCHRDMKFCYHNIGMPFRNLKLILQGCSSSCSETENNKCCSTDRCNK (disulfide 4-20, 13-38, 42-50, 51-56 (inferred)) [Ma-3, mambalgin-3]” was run?
A: 6.5 s

Q: What about the “time of Ma-3 application to maximal inhibition” value ([1]; 30 nM Ma-3 at pH 7.45) of the same substance?
A: ≤ 45 s

Q: And the “shift of the activation curve towards more acidic values” ([1]; 100 nM Ma-3, conditioning pH 8)?
A: 0.48 pH units

Q: What about the “slope of activation curve in presence of Ma-3” value [1, 4] of the same substance?
A: 1.29 ± 0.67

Q: What about the “alkaline shift in the SSD curve” value ([1]; 100 nM Ma-3, stimulating pH 5) of the same substance?
A: 0.08 pH units

Q: And the “slope of SSD curve in presence of Ma-3” value [1, 5]?
A: 7.09 ± 1.34

Q: What about the “pH50 of activation in presence of Ma-3” value [1, 6] of the same substance?
A: 5.72 ± 0.23

Q: What about the “pH50 of steady-state desensitisation (SSD) in presence of Ma-3” value [1, 7] of the same substance?
A: 7.42 ± 0.04

Q: And the “pH50 of activation in presence of Ma-3” value ([1]; 100 nM Ma-3 in the pH 8 conditioning solution, Hill fit (Supplementary Table 7), n = 5–6)?
A: 5.60

Q: What about the “inhibition of currents at 300 nM” value [1, 3] of the same substance?
A: strongly inhibit

Q: And the “fold more potent inhibition of rASIC1a than rASIC1b” value ([1]; IC50 ratio, conditioning pH 7.45, stimulating pH 6)?
A: ~ 10 fold

Q: And the “t1/2 of recovery of currents from inhibition (washout)” value ([1]; after 30 nM Ma-3, pH 7.45 conditioning, single exponential fit, n = 6)?
A: 21.6 s

Q: What about the “inhibition at saturating Ma-3 concentrations” value [1, 3] of the same substance?
A: completely inhibited

Q: What about the “shift in the activation curve” value ([2]; 100 nM Ma-3, conditioning pH 8) of the same substance?
A: no shift

Q: What about the “slope of activation curve in presence of Ma-3” value [2, 4] of the same substance?
A: 3.69 ± 0.56

Q: What about the “shift of the SSD curve towards alkaline values” ([2]; 100 nM Ma-3, stimulating pH 5) of the same substance?
A: 0.06 pH units

Q: What about the “slope of SSD curve in presence of Ma-3” value [2, 5] of the same substance?
A: 2.41 ± 0.51

Q: What about the “pH50 of activation in presence of Ma-3” value [2, 6] of the same substance?
A: 6.03 ± 0.02

Q: What about the “pH50 of steady-state desensitisation (SSD) in presence of Ma-3” value [2, 7] of the same substance?
A: 7.04 ± 0.04

Q: And the “t1/2 of onset of inhibition” value ([2]; 300 nM Ma-3 (~ 10 times the IC50) applied at pH 7.45 for different durations, single exponential fit, n = 5)?
A: 3.8 s

Q: And the “pH50 of activation in presence of Ma-3” value ([2]; 300 nM Ma-3, conditioning pH 7.45, Hill fit, n = 5–6)?
A: 6.17

Q: And the “time of Ma-3 application to maximal inhibition” value ([2]; 300 nM Ma-3 at pH 7.45)?
A: ≤ 45 s

Q: And the remaining activity at 0.3 µM ([2]; n = 5–8)?
A: 40%

Q: What about the “t1/2 of recovery of currents from inhibition (washout)” value ([2]; after 300 nM Ma-3, pH 7.45 conditioning, single exponential fit, n = 5) of the same substance?
A: 12.8 s
